Assay results from BindingDB's records for aid1799744 (Csar, 2012).
pKi: −log10 of the molar value.

target: Mitogen-activated protein kinase 1 (Homo sapiens, UniProt P28482); experiment: Assay 1
Sequence (P28482 whole entry): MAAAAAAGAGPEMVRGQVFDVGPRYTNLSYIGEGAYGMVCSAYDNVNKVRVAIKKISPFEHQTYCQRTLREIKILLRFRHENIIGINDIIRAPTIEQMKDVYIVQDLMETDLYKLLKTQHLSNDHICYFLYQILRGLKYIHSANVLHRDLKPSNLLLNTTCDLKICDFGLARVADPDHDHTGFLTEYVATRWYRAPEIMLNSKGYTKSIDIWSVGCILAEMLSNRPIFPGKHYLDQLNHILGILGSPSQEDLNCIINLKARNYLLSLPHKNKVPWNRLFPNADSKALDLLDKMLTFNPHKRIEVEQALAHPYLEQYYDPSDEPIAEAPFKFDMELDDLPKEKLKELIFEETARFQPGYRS

Compound	pKi
CCOC(=O)OC[C@H](CC)Nc1ncc(C)c(-c2c[nH]c(C(=O)N[C@H](CO)c3cccc(Cl)c3)c2)n1 [erk000669]	7.57
O=C(N[C@H](CO)c1cccc(Cl)c1)c1cc(-c2ncnc(Nc3ccccc3)n2)c[nH]1 [erk000671]	8.70
CC(C)Nc1cc(-c2c[nH]c(C(=O)N[C@H](CO)c3cccc(Cl)c3)c2)ncn1 [erk000672]	7.52
CC[C@@H](CO)Nc1cc(-c2c[nH]c(C(=O)N[C@H](CO)c3cccc(Cl)c3)c2)ncn1 [erk000673]	7.74
Cc1cnc(N[C@@H](CO)CC(F)(F)F)nc1-c1c[nH]c(C(=O)N[C@H](CO)c2cccc(Cl)c2)c1 [erk000675]	8.10
CCOP(=O)(OCC)OC[C@H](CC)Nc1ncc(C)c(-c2c[nH]c(C(=O)N[C@H](COP(=O)(OCC)OCC)c3cccc(Cl)c3)c2)n1 [erk000676]	5.97
Cc1cnc(N[C@@H](C)COC(=O)C(C)C)nc1-c1c[nH]c(C(=O)N[C@H](COC(=O)C(C)C)c2cccc(Cl)c2)c1 [erk000677]	5.88
CC[C@@H](CO)Nc1ncc(C)c(-c2cc(C(=O)N[C@H](CO)c3cccc(Cl)c3)n(CC)c2)n1 [erk000678]	8.40
CCn1cc(-c2nc(N[C@@H](C)CO)ncc2C)cc1C(=O)N[C@H](CO)c1cccc(Cl)c1 [erk000679]	8.30
CCn1cc(-c2nc(NCC(F)(F)F)ncc2C)cc1C(=O)N[C@H](CO)c1cccc(Cl)c1 [erk000680]	7.47
CC(=O)OC[C@H](C)Nc1ncc(C)c(-c2c[nH]c(C(=O)N[C@H](COC(C)=O)c3cccc(Cl)c3)c2)n1 [erk000682]	6.48
CC[C@@H](COC(=O)OC(C)C)Nc1ncc(C)c(-c2c[nH]c(C(=O)N[C@H](CO)c3cccc(Cl)c3)c2)n1 [erk000684]	6.80
CC[C@@H](COC(=O)[C@@H](N)C(C)C)Nc1ncc(C)c(-c2c[nH]c(C(=O)N[C@H](COC(=O)[C@@H](N)C(C)C)c3cccc(Cl)c3)c2)n1 [erk000685]	6.12
CC[C@@H](COC(=O)C(C)C)Nc1ncc(C)c(-c2c[nH]c(C(=O)N[C@H](CO)c3cccc(Cl)c3)c2)n1 [erk000689]	7.82
CCOP(=O)(OCC)OC[C@H](CC)Nc1ncc(C)c(-c2c[nH]c(C(=O)N[C@H](CO)c3cccc(Cl)c3)c2)n1 [erk000690]	5.96
Cc1cnc(N)nc1-c1c[nH]c(C(=O)N[C@H](CO)c2cccc(Cl)c2)c1 [erk000691]	7.82
Cc1cnc(NCC(F)(F)F)nc1-c1cc(C(=O)N[C@H](CO)c2cccc(Cl)c2)n(C)c1 [erk000692]	8.22
CC[C@@H](CO)Nc1ncc(C)c(-c2c[nH]c(C(=O)N[C@H](COC(=O)OC(C)C)c3cccc(Cl)c3)c2)n1 [erk000693]	7.43
CC[C@@H](CO)Nc1ncc(C)c(-c2cc(C(=O)N[C@H](CO)c3cccc(Cl)c3)n(COC)c2)n1 [erk000694]	8.30
CC[C@@H](COC(=O)C(C)C)Nc1ncc(Cl)c(-c2c[nH]c(C(=O)N[C@H](COC(=O)C(C)C)c3ccccc3)c2)n1 [erk000696]	6.82
CC[C@@H](CO)Nc1ncc(F)c(-c2c[nH]c(C(=O)N[C@H](CO)c3cccc(Cl)c3)c2)n1 [erk000697]	8.52
CC[C@@H](COC(=O)COCCOC)Nc1ncc(C)c(-c2c[nH]c(C(=O)N[C@H](CO)c3cccc(Cl)c3)c2)n1 [erk000698]	7.77
CC[C@@H](COC(=O)COCCOCCOC)Nc1ncc(C)c(-c2c[nH]c(C(=O)N[C@H](CO)c3cccc(Cl)c3)c2)n1 [erk000699]	7.89

Compound	pKi
Cc1[nH]c(C(=O)N[C@H](CO)c2cccc(Cl)c2)c(C)c1-c1ccnc(Nc2ccc(F)cc2Cl)n1 [erk000700]	8.05
CCONc1ncc(C)c(-c2cc(C(=O)N[C@H](CO)c3cccc(Cl)c3)n(C)c2)n1 [erk000701]	7.89
CC[C@@H](COC(=O)C(C)(C)C)Nc1ncc(C)c(-c2c[nH]c(C(=O)N[C@H](CO)c3cccc(Cl)c3)c2)n1 [erk000702]	7.26
CCOC(=O)N1CCC(Nc2ncc(Cl)c(-c3c[nH]c(C(=O)N[C@H](CO)c4cccc(Cl)c4)c3)n2)CC1 [erk000703]	8.15
Cc1cnc(N[C@H]2CCOC2)nc1-c1cc(C(=O)N[C@H](CO)c2ccccc2)n(C)c1 [erk000704]	8.52
CCONc1ncc(Cl)c(-c2c[nH]c(C(=O)N[C@H](CO)c3cccc(C)c3)c2)n1 [erk000705]	8.40
Cc1cnc(N[C@@H](C)CO)nc1-c1cc(C(=O)N[C@H](CO)c2ccccc2)n(C)c1 [erk000706]	8.22
CC(C)Nc1ncc(Cl)c(-c2c[nH]c(C(=O)N(C)[C@H](CO)c3ccccc3)c2)n1 [erk000708]	8.22
CC[C@@H](CO)Nc1ncc(C)c(-c2c[nH]c(C(=O)N(C)[C@H](CO)c3cccc(Cl)c3)c2)n1 [erk000709]	8.70
CC[C@@H](CO)Nc1ncc(Cl)c(-c2cc(C(=O)N[C@H](CO)c3ccccc3)n(C)c2)n1 [erk000710]	8.40
CC[C@@H](CO)Nc1ncc(Cl)c(N2CCN(C(=O)N[C@H](CO)c3cccc(Cl)c3)CC2)n1 [erk000711]	7.42
Fc1cccc(-c2cnoc2-c2c[nH]c3ncc(-c4ccncc4)cc23)c1F [erk000712]	6.72
CC[C@@H](COC(=O)CCC(=O)O)Nc1ncc(C)c(-c2c[nH]c(C(=O)N[C@H](COC(=O)CCC(=O)O)c3cccc(Cl)c3)c2)n1 [erk000713]	6.93
CC[C@@H](COC(=O)[C@@H](N)C(C)(C)C)Nc1ncc(C)c(-c2c[nH]c(C(=O)N[C@H](COC(=O)[C@@H](N)C(C)(C)C)c3cccc(Cl)c3)c2)n1 [erk000714]	7.52
CC[C@@H](COC(=O)[C@@H](NC)C(C)C)Nc1ncc(C)c(-c2c[nH]c(C(=O)N[C@H](COC(=O)[C@@H](NC)C(C)C)c3cccc(Cl)c3)c2)n1 [erk000715]	5.72
CC[C@@H](COC(=O)COCCOC)Nc1ncc(C)c(-c2c[nH]c(C(=O)N[C@H](COC(=O)COCCOC)c3cccc(Cl)c3)c2)n1 [erk000716]	6.37
CC[C@@H](COC(=O)[C@H](C)N)Nc1ncc(C)c(-c2c[nH]c(C(=O)N[C@H](COC(=O)[C@H](C)N)c3cccc(Cl)c3)c2)n1 [erk000717]	7.42
CC[C@@H](COC(=O)CCC(=O)N1CCOCC1)Nc1ncc(C)c(-c2c[nH]c(C(=O)N[C@H](COC(=O)CCC(=O)N3CCOCC3)c3cccc(Cl)c3)c2)n1 [erk000718]	6.59
CC[C@@H](COC(=O)[C@H](CC(C)C)NC)Nc1ncc(C)c(-c2c[nH]c(C(=O)N[C@H](COC(=O)[C@H](CC(C)C)NC)c3cccc(Cl)c3)c2)n1 [erk000719]	6.28
CC[C@@H](COC(=O)C(C)(C)N)Nc1ncc(C)c(-c2c[nH]c(C(=O)N[C@H](COC(=O)C(C)(C)N)c3cccc(Cl)c3)c2)n1 [erk000720]	6.70
CC[C@@H](CO)Nc1ncc(C)c(-c2c[nH]c(C(=O)N[C@H](COP(=O)(O)O)c3cccc(Cl)c3)c2)n1 [erk000721]	8.40
CC[C@@H](COP(=O)(O)O)Nc1ncc(C)c(-c2c[nH]c(C(=O)N[C@H](CO)c3cccc(Cl)c3)c2)n1 [erk000722]	6.38
C[C@@H]1CCN(C(=O)CC#N)C[C@@H]1N(C)c1nc(Nc2ccc(N3CCOCC3)cc2)nc2[nH]cnc12 [erk000723]	6.39
